Reference: patent US5843990A, “Pyran-chromenone compounds, their synthesis and anti-HIV activity” (The University of Tennessee Research Corporation, priority 1996, dated 1998)
Entries after “also recorded” stand apart in the source; their conditions may differ. Where two headings read alike, the source gives them in different places.

How the values were obtained:
[1] = test system: T4 lymphocytes (CEM cell line), CEMSS; experiment: NCI protocol toxicity control: growth of drug-treated, uninfected CEM-SS cells; assay type: cell-based; settings: Homo sapiens, Table 3, 8b-8e tested as racemic drug, read-out: IC50 (concentration for inhibition of 50% of cell growth)
Experimental: (§1) (1) The sample is dissolved in dimethyl sulfoxide, then diluted 1:100 in cell culture medium before preparing serial half-log10 dilutions. T4 lymphocytes (CEM cell line) are added, and after a brief interval, HIV-1 is added, resulting in a 1:200 dilution of the compound. Uninfected cells with the compound serve as a toxicity control, and infected and uninfected cells without the compound serve as basic controls.
(§2) (2) Cultures are incubated at 37° C. in a 5% carbon dioxide atmosphere for six days.
(§3) (3) The tetrazolium salt, XTT, is added to all wells, and cultures are incubated to allow formazan color development by viable cells.
(§4) (4) Individual wells are analyzed spectrophotometrically to quantitate fornazan production, and in addition are viewed microscopically for detection of viable cells and confirmation of protective activity.
(§5) (5) Drug-treated, virus-infected cells are compared with drug-treated, noninfected cells and with other appropriate controls (untreated infected and untreated noninfected cells, drug-containing wells without cells, etc.) on the same plate.
(§6) The results are given for IC50 and EC50. IC50 is a measure of "concentration for inhibition of 50% of cell growth" and is measured from drug-treated, uninfected cells, thus giving a measure of drug toxicity toward T4 lymphocytes. The EC50 is "effective inhibition for 50% of cell growth" and is measured on drug-treated, HIV-infected cells. A ratio of these values, IC50 /EC50 gives the therapeutic index, a measure of the overall effectiveness of the drug in halting virus-infestedcell growth. Typically for anti-HIV drugs to be classed as "active" in the NCI protocol, the IC50 value should be at least micromolar (10^-6 M) and the EC50 value should be sub-micromolar (10^-7 M or lower); however, these values are only ideal, and may vary a log-order in magnitude or more. […] Large, positive TI values, measured in the 10^2 -10^3 range indicate a potent, relatively nontoxic drug and represent the near-ideal drug candidate.
(§7) ^a Testing was conducted according to NCI's protocol [Weislow, O. W.
(§8) et al. J. Natl. Cancer Inst. 1989, 81, 577-586]. The virus strain was
(§9) HIV1, and the cell line was CEMSS.

[2] = test system: HIV-1; experiment: NCI (Weislow) anti-HIV screen, XTT cell protection, HIV-1 infected CEM-SS; assay type: cell-based; settings: for anti-HIV activity / relative potency in words: NCI anti-HIV screen; for Classification (Active / Moderately Active / Inactive): Weislow assay, criteria of NCI protocol; for Classification (Active / Moderately Active / Inactive) / TI (therapeutic index, IC50/EC50): CEM-SS, HIV-1; for EC50: Human immunodeficiency virus 1, 6 days, HIV-1 infected CEM-SS cells, 8c, 8d tested as racemic drug, read-out: EC50 (effective inhibition for 50% of cell growth); for EC50 / TI (therapeutic index, IC50/EC50): Table 3; for TI (therapeutic index, IC50/EC50): 8640 min
Experimental: The compounds of this invention were also all assayed for activity in inhibiting the growth of HIV, human immunodeficiency virus, the virus known to cause AIDS. The protocol^25 was that of the National Cancer Institute (NCI) of the National Institutes of Health. The primary screen makes use of the HIV-1 strain of the virus. By this protocol, the procedure is as follows:
as §1, with “controls. […]” for “controls.”
as §3, §4, §5
(6) Data are reviewed in comparison with other tests done at the same time, and a determination about activity is made.
as §6, §7, §8, §9

[3] = test system: human immunodeficiency virus (HIV); settings: four diastereomers of the calanolide series, literature, cited from earlier work
[4] = test system: MT4 cells; experiment: NCI protocol toxicity control: growth of drug-treated, uninfected MT4 cells; assay type: cell-based; settings: Homo sapiens
Experimental: as §1, §2, §3, §4, §5, §6, §7, §8
(§10) HIV1, and the cell line was MT4.

[5] = test system: N119, a nevirapine-resistant strain bearing a mutation at AA codon 181; experiment: NCI protocol, N119 nevirapine-resistant strain, MT4 cells; assay type: cell-based, HIV-1; settings: for EC50: Human immunodeficiency virus 1, MT4; for Classification: NCI criteria
Experimental: as §1, §2, §3, §4, §5, §6
(§11) Among these are the following strains of the virus: (1) HIV-1 (6R), an AZT-resistant strain; (2) N119, a nevirapine-resistant strain bearing a mutation at AA codon 181; (2) DPS, a diphenyl sulfone-resistant strain bearing a different mutation at AA codon 181.
as §7, §8, §10

[6] = test system: strains of HIV resistant to other drugs that inhibit HIV reverse transcriptase; experiment: Activity against HIV strains resistant to other HIV reverse transcriptase inhibitors (summary in words); assay type: cell-based; settings: HIV-1 (6R), N119, DPS
Description: as §11
From the data in the Table, both compounds (-)-7a and 8a were classified as "active" for inhibition of each resistant HIV strain. From the large TI values, their potencies against these resistant strains of the virus are novel and remarkable. Other compounds of the invention are expected also to have this property.
as §7, §8, §10

[7] = test system: DPS, a diphenyl sulfone-resistant strain bearing a different mutation at AA codon 181; experiment: NCI protocol, DPS diphenyl sulfone-resistant strain, MT4 cells; assay type: cell-based, HIV-1; settings: for EC50: Human immunodeficiency virus 1, MT4; for TI (IC50/EC50) / Classification: Table 4, DPS, MT4 cells; for Classification: NCI criteria
Experimental: as §1, §2, §3, §4, §5, §6, §11, §7, §8, §10

[8] = test system: HIV-1 (6R), an AZT-resistant strain; experiment: NCI protocol, HIV-1 (6R) AZT-resistant strain, MT4 cells; assay type: cell-based; settings: for EC50: Human immunodeficiency virus 1, MT4; for TI (IC50/EC50) / Classification: Table 4, HIV-1 (6R), MT4 cells; for Classification: NCI criteria
Experimental: as §1, §2, §3, §4, §5, §6, §11, §7, §8, §10

[9] = MT4, Table 4, line of strain DPS
[10] = MT4, Table 4, line of strain HIV-1 (6R)
[11] = MT4, Table 4, line of strain N119

Compound: CCCc1cc(=O)oc2c3c(cc(OC)c12)O[C@H](C)[C@@H](C)[C@@H]3O (relative stereo) [Compound 8b]
- IC50 [1]: > 200 µM
- anti-HIV activity / relative potency in words [2]: less potent activities
- Classification (Active / Moderately Active / Inactive) [2]: Inactive

Compound: CCCc1cc(=O)oc2c3c(cc(OC(C)CC)c12)O[C@H](C)[C@@H](C)[C@@H]3O (relative stereo) [Compound 8c]
- IC50 [1]: 37.4 µM
- EC50 [2]: 3.66 µM
- anti-HIV activity / relative potency in words [2]: less potent activities
- TI (therapeutic index, IC50/EC50) [2]: 10.2
- Classification (Active / Moderately Active / Inactive) [2]: Mod. Active; also recorded: moderately active

Compound: C#CCOc1cc2c(c3oc(=O)cc(CCC)c13)[C@@H](O)[C@H](C)[C@@H](C)O2 (relative stereo) [Compound 8e]
- IC50 [1]: 8.34 µM
- anti-HIV activity / relative potency in words [2]: less potent activities
- Classification (Active / Moderately Active / Inactive) [2]: Inactive

Compound: CCCc1cc(=O)oc2c3c(c4c(c12)OC(C)(C)C=C4)OC(C)C(C)C3O (single isomer, unassigned; (-)) [(-)-calanolide B]
- anti-HIV potency of known calanolides, in words [3]: the more potent of the four diastereomers; also recorded: more potent diastereomers in this class

Compound: CCCc1cc(=O)oc2c3c(c4c(c12)OC(C)(C)C=C4)O[C@H](C)[C@@H](C)[C@@H]3O [(+)-calanolide A]
- anti-HIV potency of known calanolides, in words [3]: the more potent of the four diastereomers
- anti-HIV potency of known calanolides, in words ([3]; listed as (+)-Calanolide A): more potent diastereomers in this class

Compound: CCCc1cc(=O)oc2c3c(cc(OC(C)C)c12)O[C@@H](C)[C@H](C)[C@@H]3O [(-)-7a, (-)-(8S,9R,10S)-10-Hydroxy-5-isopropyloxy-8,9-dimethyl-4-propyl-9,10-di-hydro-8H-pyrano[2,3-f]-chromen-2-one]
- IC50 [1]: 8.11 µM
- IC50 [4, 9]: 12 µM
- IC50 [4, 10]: 10.8 µM
- IC50 [4, 11]: 11.1 µM
- EC50 [5]: 0.00701 µM
- TI (IC50/EC50) ([5]; Table 4, N119, MT4 cells): 1540
- Classification ([5]; Table 4, N119, MT4 cells): Active
- inhibitory activity against resistant HIV strains, in words [6]: potent inhibitory activities; also recorded: active; also recorded: potent activity
- EC50 [7]: 0.099 µM
- TI (IC50/EC50) [7]: 121
- Classification [7]: Active
- EC50 [2]: 0.963 µM
- anti-HIV activity / relative potency in words [2]: highly potent; also recorded: remarkable
- anti-HIV activity / relative potency in words ([2]; listed as (-)-7): consistently showed impressive results in the anti-HIV screen
- TI (therapeutic index, IC50/EC50) [2]: 84.2
- Classification (Active / Moderately Active / Inactive) [2]: Active
- EC50 [8]: 0.639 µM
- TI (IC50/EC50) [8]: 16.9
- Classification [8]: Active

Compound: CCCc1cc(=O)oc2c3c(cc(OC(C)C)c12)O[C@@H](C)[C@H](C)[C@H]3O [(-)-8a, (-)-(8S, 9R, 10R)-10-Hydroxy-5-isopropyloxy-8,9-dimethyl-4-propyl-9,10-dihydro-8H-pyrano[2,3-f]-chromen-2-one]
- IC50 [1]: 7.34 µM
- anti-HIV activity / relative potency in words [2]: consistently showed impressive results in the anti-HIV screen
- Classification (Active / Moderately Active / Inactive) [2]: Inactive

Compound: CCCc1cc(=O)oc2c3c(cc(OC(C)C)c12)O[C@H](C)[C@@H](C)[C@H]3O [Compound 7a, (+)-(8R,9S,10R)-10-Hydroxy-5-isopropyloxy-8,9-dimethyl-4-propyl-9,10-di-hydro-8H-pyrano[2,3-f]-chromen-2-one]
- IC50 [1]: 8.4 µM
- anti-HIV activity / relative potency in words [2]: consistently showed impressive results in the anti-HIV screen
- Classification (Active / Moderately Active / Inactive) [2]: Inactive

Compound: CCCc1cc(=O)oc2c3c(cc(OC(C)C)c12)O[C@H](C)[C@@H](C)[C@@H]3O [Compound 8a, (+)-(8R,9S,10S)-10-Hydroxy-5-isopropyloxy-8,9-dimethyl-4-propyl-9,10-dihydro-8H-pyrano[2,3-f]-chromen-2-one]
- IC50 [1]: 21 µM
- IC50 [4, 9]: > 20 µM
- IC50 [4, 10]: > 20 µM
- IC50 [4, 11]: > 20 µM
- EC50 [5]: 0.00635 µM
- Classification ([5]; Table 4, N119, MT4 cells): Active
- inhibitory activity against resistant HIV strains, in words [6]: potent inhibitory activities; also recorded: active
- inhibitory activity against resistant HIV strains, in words ([6]; listed as (+)-8a): potent activity
- EC50 [7]: 0.0649 µM
- TI (IC50/EC50) [7]: > 308
- Classification [7]: Active
- EC50 [2]: 0.161 µM
- anti-HIV activity / relative potency in words [2]: consistently showed impressive results in the anti-HIV screen; also recorded: remarkable
- anti-HIV activity / relative potency in words ([2]; listed as (+)-8a): remarkable among the congeners of the invention
- TI (therapeutic index, IC50/EC50) [2]: 130
- Classification (Active / Moderately Active / Inactive) [2]: Active
- EC50 [8]: 0.365 µM
- TI (IC50/EC50) [8]: 54.8
- Classification [8]: Active
